Results: ChEMBL document CHEMBL3638544, “Phenalkylamine derivatives, pharmaceutical compositions containing them, and their use in therapy” (2015)

Target: T1, Sodium- and chloride-dependent glycine transporter 1 (Homo sapiens, UniProt P48067)
T1 sequence (P48067 whole entry): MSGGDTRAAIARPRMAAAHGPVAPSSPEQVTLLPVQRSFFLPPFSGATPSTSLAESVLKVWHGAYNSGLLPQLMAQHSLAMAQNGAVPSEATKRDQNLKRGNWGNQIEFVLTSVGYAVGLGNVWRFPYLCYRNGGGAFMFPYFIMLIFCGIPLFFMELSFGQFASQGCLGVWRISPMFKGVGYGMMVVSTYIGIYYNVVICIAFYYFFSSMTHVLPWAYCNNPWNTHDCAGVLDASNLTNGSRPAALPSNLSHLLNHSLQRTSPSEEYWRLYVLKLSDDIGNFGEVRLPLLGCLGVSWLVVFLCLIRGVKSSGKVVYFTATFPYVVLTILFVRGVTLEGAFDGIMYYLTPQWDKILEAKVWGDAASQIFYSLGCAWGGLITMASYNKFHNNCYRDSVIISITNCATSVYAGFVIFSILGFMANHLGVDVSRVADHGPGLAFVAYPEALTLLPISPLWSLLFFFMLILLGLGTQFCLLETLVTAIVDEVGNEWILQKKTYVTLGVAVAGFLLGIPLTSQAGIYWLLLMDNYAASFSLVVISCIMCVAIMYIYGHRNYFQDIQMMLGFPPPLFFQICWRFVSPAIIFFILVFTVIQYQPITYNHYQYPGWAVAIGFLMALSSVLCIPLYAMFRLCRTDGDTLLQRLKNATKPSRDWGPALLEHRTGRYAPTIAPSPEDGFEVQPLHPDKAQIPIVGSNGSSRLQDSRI
Experiment: Radioligand Binding Assay: Radioligand binding to human GlyT1c transporter-expressing membranes was determined as described in Mezler et al., Molecular Pharmacology 74:1705-1715, 2008.

NCC(Cc1ccccc1)c1ccc2c(c1)CN(S(=O)(=O)CC1CC1)CC2 (stereo unspecified)
Ki: < 10 µM
